Assay results reported in US20220362396A1, “AMINO-PYRAZINECARBOXAMIDE COMPOUNDS, CONJUGATES, AND USES THEREOF” (Silverback Therapeutics, Inc., priority 2018, published 2022).

Key:
[1] = test system: TGFβ/SMAD Signaling Pathway SBE reporter cell line; assay: TGFβ reporter assay, in vitro small molecule screening (luciferase); format: cell-based; settings: TGFβ stimulation, luminescence
Method: TGFβ/SMAD Signaling Pathway SBE reporter cell line was obtained from BPS Bioscience. Cells were passed, expanded, and stored in liquid nitrogen as per the supplier's instructions with the exception that growth media is changed to DMEM-C with Geneticin (DMEM supplemented with 10% fetal bovine serum, 1×NEAA, 1 mM Pyruvate, 2 mM glutamine, 50 μg/mL penicillin, 50 U/mL streptomycin and 400 μg/mL of Geneticin). The assay media was MEM supplemented with 0.5% fetal bovine serum, 1×NEAA, 1 mM Pyruvate, 50 μg/mL penicillin and 50 U/mL streptomycin.
Test samples (at desired concentrations diluted in assay media) were added to a 96-well assay plate, 20 μL per well. Reporter cells were harvested from the tissue culture flasks by incubation in small quantity of PBS at 37° C. for two minutes after the media in the flask is removed and cells rinsed with PBS. Cells were counted and diluted in the assay media at approximately 0.5×10^6 cells/mL and then 80 μL/well of cells were added to the assay plate containing the 20 μL/well of test samples (or media only), and incubated for approximately 5-6 hours at 37° C. in a 5% CO2 humidified incubator. After that time, 15 μL of TGFβ diluted to 12 ng/mL in the assay media was added to the plate. Controls included TGFβ titration (from 50 to 0 ng/mL) without inhibitors, and media only (without cells, inhibitor or TGFβ). Plates were incubated at 37° C. in a 5% CO2 humidified incubator for 18 h. Luciferase substrate solution is subsequently added at 100 μL per well, incubated in the dark at room temperature for 15 min, and luminescence is measured using a luminometer. EC50 values and curve fits were obtained using Prism (GraphPad Software).

TGFBR2 = target: T1, TGFBR2 (Homo sapiens, UniProt P37173); assay: TGFBR2 RBC assay (enzyme inhibition assay, Reaction Biology Corp.); format: biochemical
T1 construct: purchased Reaction Biology Corp
Method: Compounds of the disclosure were also assayed by Reaction Biology Corp. using the TGFBR2 RBC assay (enzyme inhibition assay). […] NT refers to not tested.

T1 sequence (P37173 23-567): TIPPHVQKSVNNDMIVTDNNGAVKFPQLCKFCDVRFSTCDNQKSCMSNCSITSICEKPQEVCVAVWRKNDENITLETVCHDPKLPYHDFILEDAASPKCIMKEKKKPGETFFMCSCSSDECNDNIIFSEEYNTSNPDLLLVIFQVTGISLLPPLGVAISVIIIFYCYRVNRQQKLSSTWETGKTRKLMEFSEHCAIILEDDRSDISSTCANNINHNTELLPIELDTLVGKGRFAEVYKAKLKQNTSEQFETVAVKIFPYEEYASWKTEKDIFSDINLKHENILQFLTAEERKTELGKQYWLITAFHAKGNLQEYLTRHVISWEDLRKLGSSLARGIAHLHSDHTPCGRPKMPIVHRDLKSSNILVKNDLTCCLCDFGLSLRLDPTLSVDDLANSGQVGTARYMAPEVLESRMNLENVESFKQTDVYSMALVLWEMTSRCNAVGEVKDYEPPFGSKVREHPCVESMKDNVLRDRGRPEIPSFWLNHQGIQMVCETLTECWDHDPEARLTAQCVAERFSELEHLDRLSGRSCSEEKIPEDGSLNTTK

Row | SMILES | EC50 [1] | IC50 (TGFBR2)
1 | Nc1ncc(-c2ccc(CCNC(=O)OCc3ccccc3)cc2)nc1C(=O)Nc1cnccc1-c1ccccn1 [Compound 25] | 100 to 1000 nM | < 50 nM
2 | Nc1ncc(-c2ccc(CCNC(=O)OCc3ccccc3)cc2)nc1C(=O)Nc1cnccc1-c1ccc2c(c1)OCO2 [Compound 26] | 100 to 1000 nM | < 50 nM
3 | [N-]=[N+]=NCC1COCCN1c1ccncc1NC(=O)c1nc(-c2ccc(CCNC(=O)OCc3ccccc3)cc2)cnc1N (stereo not drawn) [Compound 27] | > 1000 nM | > 1000 nM
4 | C[C@H]1CN(c2ccncc2NC(=O)c2nc(-c3ccc(CCNC(=O)OCc4ccccc4)cc3)cnc2N)CCO1 [Compound 28] | 100 to 1000 nM | 100 to 1000 nM
5 | Nc1ncc(-c2ccc(CCNC(=O)OCc3ccccc3)cc2)nc1C(=O)Nc1cnccc1N1CCC(F)(F)CC1 [Compound 29] | 100 to 1000 nM | > 1000 nM
6 | NCC1CN(c2ccncc2NC(=O)c2nc(-c3ccc(CCNC(=O)OCc4ccccc4)cc3)cnc2N)CCO1 (stereo not drawn) [Compound 30] | > 1000 nM | 100 to 1000 nM
7 | N#Cc1ccccc1-c1ccncc1NC(=O)c1nc(-c2ccc(CCNC(=O)OCc3ccccc3)cc2)cnc1N [Compound 31] | > 1000 nM | > 1000 nM
8 | Cc1cnccc1-c1ccncc1NC(=O)c1nc(-c2ccc(CCNC(=O)OCc3ccccc3)cc2)cnc1N [Compound 32] | 50 to 100 nM | 100 to 1000 nM
9 | COc1cnccc1-c1ccncc1NC(=O)c1nc(-c2ccc(CCNC(=O)OCc3ccccc3)cc2)cnc1N [Compound 33] | 100 to 1000 nM | > 1000 nM
10 | Nc1ncc(-c2ccc(CCNC(=O)OCc3ccccc3)cc2)nc1C(=O)Nc1cnccc1-c1ccc(O)cc1 [Compound 34] | > 1000 nM | 100 to 1000 nM
11 | Nc1ncc(-c2ccc(CCNC(=O)OCc3ccccc3)cc2)nc1C(=O)Nc1cnccc1N1CCOCC1=O [Compound 35] | 100 to 1000 nM | 100 to 1000 nM
12 | Nc1ncc(-c2ccc(CCNC(=O)OCc3ccccc3)cc2)nc1C(=O)Nc1cnccc1N1CCSCC1 [Compound 36] | 50 to 100 nM | 100 to 1000 nM
13 | NCC1COCCN1c1ccncc1NC(=O)c1nc(-c2ccc(CCNC(=O)OCc3ccccc3)cc2)cnc1N (stereo not drawn) [Compound 37] | > 1000 nM | > 1000 nM
14 | Nc1ncc(-c2ccc(CCNC(=O)OCc3ccccc3)cc2)nc1C(=O)Nc1cnccc1N1CCCOC1=O [Compound 38] | 100 to 1000 nM | 100 to 1000 nM
15 | Nc1ncc(-c2ccc(CCNC(=O)OCc3ccccc3)cc2)nc1C(=O)Nc1cnccc1-c1cc[nH]c(=O)c1 [Compound 39] | > 1000 nM | 100 to 1000 nM
16 | Nc1cc(-c2ccncc2NC(=O)c2nc(-c3ccc(CCNC(=O)OCc4ccccc4)cc3)cnc2N)ccn1 [Compound 40] | > 1000 nM | < 50 nM
17 | NCC1CN(c2ccncc2NC(=O)c2nc(-c3ccc(CCNC(=O)OCc4ccccc4)cc3)cnc2N)CCO1 (stereo not drawn) [Compound 41] | 100 to 1000 nM | 100 to 1000 nM
18 | COC1CCN(c2ccncc2NC(=O)c2nc(-c3ccc(CCNC(=O)OCc4ccccc4)cc3)cnc2N)CC1 [Compound 42] | 100 to 1000 nM | 50 to 100 nM
19 | Nc1ccc(-c2ccncc2NC(=O)c2nc(-c3ccc(CCNC(=O)OCc4ccccc4)cc3)cnc2N)cn1 [Compound 43] | 100 to 1000 nM | < 50 nM
20 | CNCCc1ccc(-c2cnc(N)c(C(=O)Nc3cnccc3N3CCOCC3)n2)cc1 [Compound 44] | 100 to 1000 nM | 100 to 1000 nM
21 | Nc1ncc(-c2ccc(CCNC(=O)OCc3ccccc3)c(F)c2)nc1C(=O)Nc1cnccc1N1CCOCC1 [Compound 46] | 100 to 1000 nM | < 50 nM
22 | Nc1ncc(-c2ccc(CCNC(=O)OCc3ccccc3)cc2)nc1C(=O)Nc1cnccc1N1CCOCCC1=O [Compound 47] | > 1000 nM | > 1000 nM
23 | Nc1ncc(-c2ccc(CCNC(=O)OCc3ccccc3)cc2)nc1C(=O)Nc1cnccc1-c1ccnnc1 [Compound 48] | > 1000 nM | < 50 nM
24 | Nc1ncc(-c2ccc(CCNC(=O)OCc3ccccc3)cc2)nc1C(=O)Nc1cnccc1-c1ccncn1 [Compound 49] | > 1000 nM | > 1000 nM
25 | Nc1ncc(-c2ccc(CCNC(=O)OCc3ccccc3)cc2F)nc1C(=O)Nc1cnccc1N1CCOCC1 [Compound 50] | 100 to 1000 nM | < 50 nM
26 | CC(=O)CCC(=O)NCCc1ccc(-c2cnc(N)c(C(=O)Nc3cnccc3N3CCOCC3)n2)cc1 [Compound 51] | 50 to 100 nM | < 50 nM
27 | Nc1ncc(-c2ccc(CCNC(=O)OCc3ccccc3)cc2)nc1C(=O)Nc1cnccc1N1CCS(=O)(=O)CC1 [Compound 52] | 100 to 1000 nM | > 1000 nM

Row | SMILES | EC50 [1] | IC50 (TGFBR2)
28 | COC1CCN(c2ccncc2NC(=O)c2nc(-c3ccc(CCNC(=O)OCc4ccccc4)cc3)cnc2N)C1 (stereo not drawn) [Compound 53] | > 1000 nM | > 1000 nM
29 | Nc1ncc(-c2ccc(CCNC(=O)CCC(=O)c3ccccc3)cc2)nc1C(=O)Nc1cnccc1N1CCOCC1 [Compound 54] | 50 to 100 nM | < 50 nM
30 | NCCc1ccc(-c2cnc(N)c(C(=O)Nc3cnccc3N3CCOCC3)n2)c(F)c1 [Compound 55] | < 50 nM | < 50 nM
31 | COc1cc(CCN)ccc1-c1cnc(N)c(C(=O)Nc2cnccc2N2CCOCC2)n1 [Compound 56] | 50 to 100 nM | 50 to 100 nM
32 | NCCc1cc(F)c(-c2cnc(N)c(C(=O)Nc3cnccc3N3CCOCC3)n2)c(F)c1 [Compound 57] | 100 to 1000 nM | 100 to 1000 nM
33 | Nc1ncc(-c2ccc(S(=O)(=O)N3CCNCC3)cc2)nc1C(=O)Nc1cnccc1N1CCOCC1 [Compound 62] | 50 to 100 nM | 100 to 1000 nM
34 | Nc1ncc(-c2ccc(S(=O)(=O)N3CCN(C(=O)OCc4ccccc4)CC3)cc2)nc1C(=O)Nc1cnccc1N1CCOCC1 [Compound 63] | 50 to 100 nM | 100 to 1000 nM
35 | NCCOc1ccc(-c2cnc(N)c(C(=O)Nc3cnccc3N3CCOCC3)n2)cc1 [Compound 64] | 50 to 100 nM | < 50 nM
36 | NCCCOc1ccc(-c2cnc(N)c(C(=O)Nc3cnccc3N3CCOCC3)n2)cc1 [Compound 65] | 100 to 1000 nM | < 50 nM
37 | NCCCc1ccc(-c2cnc(N)c(C(=O)Nc3cc(F)ccc3N3CCOCC3)n2)cc1 [Compound 66] | > 1000 nM | 100 to 1000 nM
38 | Nc1ncc(-c2ccc3c(c2)CNCC3)nc1C(=O)Nc1cnccc1N1CCOCC1 [Compound 67] | 50 to 100 nM | 50 to 100 nM
39 | CC(C)(C)OC(=O)N1CCc2ccc(-c3cnc(N)c(C(=O)Nc4cnccc4N4CCOCC4)n3)cc2C1 [Compound 68] | 100 to 1000 nM | < 50 nM
40 | NCCCc1ccc(-c2cnc(N)c(C(=O)Nc3cnccc3N3CCOCC3)c2)cc1 [Compound 69] | > 1000 nM | > 1000 nM
41 | Nc1ncc(-c2ccc(N3CCNCC3)cc2)nc1C(=O)Nc1cnccc1N1CCOCC1 [Compound 70] | 50 to 100 nM | < 50 nM
42 | CC(C)(C)OC(=O)N1CCN(c2ccc(-c3cnc(N)c(C(=O)Nc4cnccc4N4CCOCC4)n3)cc2)CC1 [Compound 71] | 100 to 1000 nM | < 50 nM
43 | Nc1ncc(-c2ccc(CCNC(=O)OCc3ccccc3)cc2)nc1C(=O)Nc1cnccc1CN1CCCC1 [Compound 72] | 100 to 1000 nM | 50 to 100 nM
44 | NCCCCc1ccc(-c2cnc(N)c(C(=O)Nc3cnccc3N3CCOCC3)n2)cc1 [Compound 73] | 50 to 100 nM | < 50 nM
45 | Nc1ncc(-c2ccc(CCCCNC(=O)OCc3ccccc3)cc2)nc1C(=O)Nc1cnccc1N1CCOCC1 [Compound 74] | 100 to 1000 nM | 50 to 100 nM
46 | NCCNC(=O)c1ccc(-c2cnc(N)c(C(=O)Nc3cnccc3N3CCOCC3)n2)cc1 [Compound 75] | 100 to 1000 nM | < 50 nM
47 | Nc1ncc(-c2ccc(C(=O)NCCNC(=O)OCc3ccccc3)cc2)nc1C(=O)Nc1cnccc1N1CCOCC1 [Compound 76] | 100 to 1000 nM | < 50 nM
48 | Nc1ncc(-c2ccc3c(c2)CCNC3)nc1C(=O)Nc1cnccc1N1CCOCC1 [Compound 77] | 50 to 100 nM | 50 to 100 nM
49 | CC(C)(C)OC(=O)N1CCc2cc(-c3cnc(N)c(C(=O)Nc4cnccc4N4CCOCC4)n3)ccc2C1 [Compound 78] | < 50 nM | < 50 nM
50 | Nc1ncc(-c2ccc(CCCNC(=O)OCc3ccccc3)cc2)cc1C(=O)Nc1cnccc1N1CCOCC1 [Compound 79] | 100 to 1000 nM | > 1000 nM
51 | NCCNC(=O)Cc1ccc(-c2cnc(N)c(C(=O)Nc3cnccc3N3CCOCC3)n2)cc1 [Compound 80] | 100 to 1000 nM | 50 to 100 nM
52 | CC(C)(C)OC(=O)N1CCN(C(=O)c2ccc(-c3cnc(N)c(C(=O)Nc4cnccc4N4CCOCC4)n3)cc2)CC1 [Compound 81] | 50 to 100 nM | 100 to 1000 nM
53 | Nc1ncc(-c2ccc(N3CCNCC3=O)cc2)nc1C(=O)Nc1cnccc1N1CCOCC1 [Compound 84] | 100 to 1000 nM | 100 to 1000 nM
54 | CC(C)(C)OC(=O)N1CCN(Cc2ccc(-c3cnc(N)c(C(=O)Nc4cnccc4N4CCOCC4)n3)cc2)C(=O)C1 [Compound 85] | < 50 nM | < 50 nM
